The text below walks through data of US20250326839A1, “TREATMENT OF DISEASES RELATED TO COLONY-STIMULATING FACTOR 1 RECEPTOR DYSFUNCTION USING TREM2 AGONISTS” (Vigil Neuroscience, Inc., priority 2020, published 2025).

This assay concerns human monocyte-derived macrophages (hMDMs). Put plainly: Example 2E: CSF1R inhibition by PLX5622, confluence and morphology (Incucyte). The following applies: PLX5622 1 μM relative to vehicle alone. Type of assay: cell-based. As for the experimental part: PBMCs were isolated from fresh, whole blood from human donors. CD14+ monocytes were isolated using positive magnetic selection (Miltenyi). Cells were plated in UpCell® low-adhesion plates and incubated in culture media with 50 ng/mL CSF1 for 48 hours. After 48 hours, cells were non-enzymatically harvested and plated at 25,000 cells per well in cell culture plates coated with 10 μg/mL of either Ab-3 or a matching isotype control. PLX5622 was immediately added to the cultures to 1 μM, and plates were incubated in a humidified incubator at 37 C, 5% CO2 for an additional 96 hours. During incubation, cells were monitored every two hours using an Incucyte S3® analyzer (2 fields of view per well, imaged at 10×). Confluence was measured using built in S3 software, while area and eccentricity (cell shape) were measured using the built in “Cell By Cell” analysis software. Significance was determined by Student's T-test, two-tailed in Graphpad Prism.

As for `COc1ncc(F)cc1CNc1ccc(Cc2c[nH]c3ncc(C)cc23)c(F)n1` [PLX5622, reference compound], for the setting “FIG. 5”, the confluence entry is listed as “significant reduction in confluence”. For the same molecule, the “cells with “high area, high eccentricity” (ramified)” value (FIG. 6) is listed as “significant reduction in cells with “high area, high eccentricity””.
